Data: patent US20090264433A1, “Compounds, Compositions and Methods Comprising Triazine Derivatives” (Institute for OneWorld Health, priority 2008, published 2009)
Structures can show the parent of a compound that is named as a salt.

Molecular target: T1, CFTR channel in human colonic T84 cells (Homo sapiens, UniProt P13569)
T1 construct: results in the phosphorylation and opening of CFTR anion channels; host or cells: human colonic T84 cells
Assay: T84 assay (FLIPR membrane potential dye, forskolin/IBMX-stimulated CFTR)
Assay type: cell-based
Conditions: average of at least 2 runs unless annotated n = 1
Procedure, shortened: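 T84 cells (25,000/well, grown overnight) were washed in HBSS with 10 mM Hepes, then loaded with FLIPR Red membrane potential dye for 45 min with or without compound. CFTR was stimulated with 10 μM forskolin plus 100 μM IBMX after a 10 s baseline. Depolarization was tracked as a fluorescence increase, read every second for 150 s.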

T1 sequence (P13569 whole entry): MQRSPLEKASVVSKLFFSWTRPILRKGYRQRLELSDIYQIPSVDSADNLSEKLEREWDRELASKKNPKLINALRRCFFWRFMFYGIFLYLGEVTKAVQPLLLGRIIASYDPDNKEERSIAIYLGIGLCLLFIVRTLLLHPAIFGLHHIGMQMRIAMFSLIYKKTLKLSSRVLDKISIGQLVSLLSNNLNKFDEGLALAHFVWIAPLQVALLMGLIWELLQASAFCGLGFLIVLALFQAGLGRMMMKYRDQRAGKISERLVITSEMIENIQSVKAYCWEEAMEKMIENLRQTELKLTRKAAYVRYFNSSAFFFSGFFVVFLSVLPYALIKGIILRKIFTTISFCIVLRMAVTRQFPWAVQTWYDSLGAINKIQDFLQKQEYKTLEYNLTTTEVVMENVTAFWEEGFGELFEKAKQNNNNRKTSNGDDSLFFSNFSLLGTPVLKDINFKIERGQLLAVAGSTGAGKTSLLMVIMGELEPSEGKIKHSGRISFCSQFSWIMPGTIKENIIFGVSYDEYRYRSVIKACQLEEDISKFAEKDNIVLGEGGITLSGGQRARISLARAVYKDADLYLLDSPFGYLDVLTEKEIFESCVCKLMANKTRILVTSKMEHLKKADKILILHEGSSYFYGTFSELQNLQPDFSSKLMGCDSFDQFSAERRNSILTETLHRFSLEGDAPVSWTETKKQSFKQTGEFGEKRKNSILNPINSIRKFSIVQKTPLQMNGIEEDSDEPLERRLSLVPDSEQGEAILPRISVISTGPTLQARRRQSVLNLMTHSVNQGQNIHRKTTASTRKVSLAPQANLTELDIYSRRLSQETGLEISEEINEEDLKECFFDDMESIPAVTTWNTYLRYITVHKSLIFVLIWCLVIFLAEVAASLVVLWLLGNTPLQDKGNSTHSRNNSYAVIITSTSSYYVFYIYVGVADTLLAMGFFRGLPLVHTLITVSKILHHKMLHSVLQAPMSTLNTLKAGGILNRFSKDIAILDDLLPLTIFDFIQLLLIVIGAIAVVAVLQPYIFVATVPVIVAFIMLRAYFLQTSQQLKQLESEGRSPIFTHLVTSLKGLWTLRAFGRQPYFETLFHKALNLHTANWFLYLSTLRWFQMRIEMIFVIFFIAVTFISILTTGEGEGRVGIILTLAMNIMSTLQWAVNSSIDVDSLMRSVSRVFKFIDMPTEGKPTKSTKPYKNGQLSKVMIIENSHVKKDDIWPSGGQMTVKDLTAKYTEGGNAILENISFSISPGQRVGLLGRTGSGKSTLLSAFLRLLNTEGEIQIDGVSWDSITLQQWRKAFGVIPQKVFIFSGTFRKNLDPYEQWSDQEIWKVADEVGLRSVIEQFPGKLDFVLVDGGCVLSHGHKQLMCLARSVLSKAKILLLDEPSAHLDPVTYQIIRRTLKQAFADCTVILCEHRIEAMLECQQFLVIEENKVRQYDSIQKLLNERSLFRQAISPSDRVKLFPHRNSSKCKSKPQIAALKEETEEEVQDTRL

Compound	IC50 [µM]
Oc1c(Cl)cc(-c2cnc(OCc3ccc(CNCc4cccc5ccccc45)cc3)nn2)cc1Cl [Compound 149, 2,6-Dichloro-4-(3-(4-((naphthalen-1-ylmethylamino)methyl)benzyloxy)-1,2,4-triazin-6-yl)phenol]	3.9
Oc1c(Cl)cc(-c2cnc(OCc3ccc(CN4CCN(c5ccc(Cl)cc5Cl)CC4)cc3)nn2)cc1Cl [Compound 150, 2,6-dichloro-4-(3-(4-((4-(2,4-dichlorophenyl)piperazin-1-yl)methyl)benzyloxy)-1,2,4-triazin-6-yl)phenol]	2.01
Oc1c(Cl)cc(-c2cnc(OCc3ccc(CN4CCN(c5ccc(F)cc5F)CC4)cc3)nn2)cc1Cl [Compound 151, 2,6-dichloro-4-(3-(4-((4-(2,4-difluorophenyl)piperazin-1-yl)methyl)benzyloxy)-1,2,4-triazin-6-yl)phenol]	1.92
Oc1c(Cl)cc(-c2cnc(OCc3ccc(CN4CCN(CCc5ccccc5)CC4)cc3)nn2)cc1Cl [Compound 152, 2,6-dichloro-4-(3-(4-((4-phenethylpiperazin-1-yl)methyl)benzyloxy)-1,2,4-triazin-6-yl)phenol]	8.88
Oc1c(Cl)cc(-c2cnc(OCc3cccc(OC(F)(F)F)c3)nn2)cc1Cl [Compound 153, 2,6-dichloro-4-(3-(3-(trifluoromethoxy)benzyloxy)-1,2,4-triazin-6-yl)phenol]	2.17
Oc1c(Cl)cc(-c2cnc(OCc3ccc(OC(F)(F)F)cc3)nn2)cc1Cl [Compound 154, 2,6-dichloro-4-(3-(4-(trifluoromethoxy)benzyloxy)-1,2,4-triazin-6-yl)phenol]	1.56
O=C(COc1ccccc1)N1CCN(Cc2ccc(COc3ncc(-c4cc(Cl)c(O)c(Cl)c4)nn3)cc2)CC1 [Compound 155, 1-(4-(4-((6-(3,5-dichloro-4-hydroxyphenyl)-1,2,4-triazin-3-yloxy)methyl)benzyl)piperazin1-yl)-2-phenoxyethanone]	4.95
Oc1c(Cl)cc(-c2cnc(OCc3ccc(CNCc4ccncc4)cc3)nn2)cc1Cl [Compound 156, 2,6-dichloro-4-(3-(4-((pyridin-4-ylmethylamino)methyl)benzyloxy)-1,2,4-triazin-6-yl)phenol]	15.4
Oc1c(Cl)cc(-c2cnc(OCc3ccc(CNC(CN4CCOCC4)c4ccccc4)cc3)nn2)cc1Cl (centres unmarked) [Compound 157, 2,6-dichloro-4-(3-(4-((2-morpholino-1-phenylethylamino)methyl)benzyloxy)-1,2,4-triazin-6-yl)phenol]	2.27
Oc1c(Cl)cc(-c2cnc(OCc3ccc(CN4CCN(Cc5cccnc5)CC4)cc3)nn2)cc1Cl [Compound 158, 2,6-dichloro-4-(3-(4-((4-(pyridin-3-ylmethyl)piperazin-1-yl)methyl)benzyloxy)-1,2,4-triazin-6-yl)phenol]	14.2
OCCN(Cc1ccccc1)Cc1ccc(COc2ncc(-c3cc(Cl)c(O)c(Cl)c3)nn2)cc1 [Compound 159, 4-(3-(4-((benzyl(2-hydroxyethyl)amino)methyl)benzyloxy)-1,2,4-triazin-6-yl)-2,6-dichlorophenol]	3.37
OCCN(Cc1cccnc1)c1ncc(-c2cc(Cl)c(O)c(Cl)c2)nn1 [Compound 160, 2,6-dichloro-4-(3-((2-hydroxyethyl)(pyridin-3-ylmethyl)amino)-1,2,4-triazin-6-yl)phenol]	22.4
CN(Cc1ccc(COc2ncc(-c3cc(Cl)c(O)c(Cl)c3)nn2)cc1)CC(O)c1ccccc1 (centres unmarked) [Compound 161, 2,6-dichloro-4-(3-(4-(((2-hydroxy-2-phenylethyl)(methyl)amino)methyl)benzyloxy)-1,2,4-triazin-6-phenol, formate salt]	18.3
Oc1c(Cl)cc(-c2cnc(OCc3ccc(CN4Cc5ccccc5C4)cc3)nn2)cc1Cl [Compound 162, 2,6-dichloro-4-(3-(4-(isoindolin-2-ylmethyl)benzyloxy)-1,2,4-triazin-6-yl)phenol]	2.96
CN(Cc1ccccc1)Cc1ccc(COc2ncc(-c3cc(Cl)c(O)c(Cl)c3)nn2)cc1 [Compound 163, 4-(3-(4-((benzyl(methyl)amino)methyl)benzyloxy)-1,2,4-triazin-6-yl)-2,6-dichlorophenol]	2.66
Oc1c(Cl)cc(-c2cnc(OCc3ccc(CNCc4ccc(F)cc4)cc3)nn2)cc1Cl [Compound 164, 2,6-dichloro-4-(3-(4-((4-fluorobenzylamino)methyl)benzyloxy)-1,2,4-triazin-6-yl)phenol]	28.5
CN(Cc1ccc(F)cc1)Cc1ccc(COc2ncc(-c3cc(Cl)c(O)c(Cl)c3)nn2)cc1 [Compound 165, 2,6-dichloro-4-(3-(4-(((4-fluorobenzyl)(methyl)amino)methyl)benzyloxy)-1,2,4-triazin-6-yl)phenol]	2.46
Oc1c(Cl)cc(-c2cnc(OCc3ccc(CN4CCc5ccccc5C4)cc3)nn2)cc1Cl [Compound 166]	3.08
Oc1c(Cl)cc(-c2cnc(OCc3ccc(CN(Cc4ccccc4)Cc4ccccc4)cc3)nn2)cc1Cl [Compound 167, 2,6-dichloro-4-(3-(4-((dibenzylamino)methyl)benzyl-oxy)-1,2,4-triazin-6-yl)phenol]	6.61
Oc1c(Cl)cc(-c2cnc(OCc3ccc(CN4CCC(Cc5ccccc5)CC4)cc3)nn2)cc1Cl [Compound 168, 4-(3-(4-((4-benzylpiperidin-1-yl)methyl)benzyloxy)-1,2,4-triazin-6-yl)-2,6-dichlorophenol]	13.9
Oc1c(Cl)cc(-c2cnc(OCc3ccc(CNCc4ccc(C(F)(F)F)nc4)cc3)nn2)cc1Cl [Compound 169, 2,6-dichloro-4-(3-(4-(((6-(trifluoromethyl)pyridin-3-yl)methylamino)methyl)benzyl-oxy)-1,2,4-triazin-6-yl)phenol]	7.77
CN(Cc1ccc(COc2ncc(-c3cc(Cl)c(O)c(Cl)c3)nn2)cc1)Cc1cncc(Br)c1 [Compound 170, 4-(3-(4-((((5-bromopyridin-3-yl)methyl)(methyl)amino)methyl)benzyloxy)-1,2,4-triazin-6-yl)-2,6-dichlorophenol]	2.81
CN(Cc1ccc(COc2ncc(-c3cc(Cl)c(O)c(Cl)c3)nn2)cc1)C(c1ccccc1)c1ccccc1 [Compound 171, 4-(3-(4-((benzhydryl(methyl)amino)methyl)benzyloxy)-1,2,4-triazin-6-yl)-2,6-dichlorophenol]	14.4
OCCN(Cc1ccc(COc2ncc(-c3cc(Cl)c(O)c(Cl)c3)nn2)cc1)Cc1ccccc1Cl [Compound 172, 2,6-dichloro-4-(3-(4-(((2-chlorobenzyl)(2-hydroxyethyl)amino)methyl)benzyl-ozyloxy)-1,2,4-triazin-6-yl)phenol]	3.36
Oc1c(Cl)cc(-c2cnc(OCc3ccc(CN4CCC(O)(c5ccccc5)CC4)cc3)nn2)cc1Cl [Compound 173, 1-(4-((6-(3,5-dichloro-4-hydroxyphenyl)-1,2,4-triazin-3-yloxy)methyl)benzyl)-4-phenylpiperidin-4-ol]	28.4
Oc1c(Cl)cc(-c2cnc(OCc3ccc(CN4CCC(C(O)(c5ccccc5)c5ccccc5)CC4)cc3)nn2)cc1Cl [Compound 174, 2,6-dichloro-4-(3-(4-((4-(hydroxydiphenylmethyl)piperidin-1-yl)methyl)benzyloxy)-1,2,4-triazin-6-yl)phenol, formate salt]	15.1
